Measured values: patent US10980853B2, “Process for preparing a crassocephalum crepidioides extract, extract prepared thereby and use of the extract” (DEVELOPMENT CENTER FOR BIOTECHNOLOGY, priority 2015, dated 2021)
Values after ≈ are worked out from the molar mass of the structure shown.

Tests used:
[1] = tested on: MKN45 cells; experiment: Inhibition of the growth of MKN45 cancer cells (MTS assay); type: cell-based
Method: (§1) MKN45 cells were incubated in RPMI-1640 medium (Sigma-Aldrich) containing 5% FBS (Gibco®). 6×10^3 cells were added to each well of a 96-well plate. Each well contained 180 μL of the above medium. The plate was incubated at 37° C. for 4 hours, and then 20 μL of various concentrations of each of the raw extract, Cr-E03 and dLGG were added to each well of the plate. Each concentration was tested with 3 replicates. After further incubation at 37° C. for 48 hours, the medium in the wells was removed, and 180 μL of 5% FBS medium containing 3-(4,5-dimethylthiazol-2-yl)-5-(3-carboxymethoxyphenyl)-2-(4-sulfophenyl)-2H-tetrazolium (MTS) were added to the wells. After reaction at 37° C. for 1 hour, the absorption values at 490 nm of the wells were measured by ELISA Reader (Model 680 Microplate Reader, Bio-Rad). IC25, IC50 and IC75 values of the raw extract, Cr-E03 and dLGG, respectively, were obtained by calculation using GraphPad Prism 5 software (GraphPad Software, Inc). IC25, IC50 and IC75 values are defined as the concentrations of the test sample which achieve 25%, 50% and 75%, respectively, of the maximal inhibition of the growth of MKN45 cells.

[2] = tested on: MKN45 cells; experiment: Combination with 5-FU or epirubicin in the inhibition of the growth of MKN45 cancer cells (combination index); type: cell-based; settings: CI<1 synergism, CI=1 addition, CI>1 antagonism
Method: as §1
Combinations of different concentrations of each of the raw extract, Cr-E03 and dLGG with different concentrations of each of 5-fluorouracil (5-FU) and epirubicin were prepared. […]

IC50 ([1]; Homo sapiens, MKN-45, 48 hours, concentration achieving 50% of maximal growth inhibition): 47.3 µg/mL (≈ 61 µM)
Structure (SMILES): CC/C=C\C/C=C\C/C=C\CCCCCCCC(=O)OC[C@H](CO[C@@H]1O[C@H](CO)[C@H](O)[C@H](O)[C@H]1O)OC(=O)CCCCCCC/C=C\C/C=C\C/C=C\CC [dLGG, 1,2-di-O-α-linolenoyl-3-O-β-galactopyranosyl-sn-glycerol]
IC25 ([1]; 48 hours, concentration achieving 25% of maximal growth inhibition): 35.86 µg/mL (≈ 46.3 µM)
IC75 ([1]; 48 hours, concentration achieving 75% of maximal growth inhibition): 61.96 µg/mL (≈ 79.9 µM)
CI (combination index) ([2]; combination with 5FU): 1.58
CI (combination index) ([2]; combination with Epi (epirubicin)): 1.58
